The values that follow are results of earlier work, collected in US5854268A, “Azetidine, pyrrolidine and piperidine derivatives” (Merck Sharp & Dohme, Ltd., priority 1994, dated 1998).

Molecules are shown by their SMILES.

For this series the following is noted: therapeutic doses.

In the case of `CNS(=O)(=O)Cc1ccc2[nH]cc(CCN(C)C)c2c1` [sumatriptan], the “adverse events in humans” value is “certain adverse cardiovascular events”.
